Read-outs that look alike come from different tables or passages of the source.

For data set [1], the system named is α2. As to conditions: described in EP-194984; cited from earlier work.
In data set [2] the target is T1, human aromatase (Homo sapiens, UniProt P11511).
T1 construct: The enzyme preparation was used without further purification; from tissue; host or cells: human placenta, microsomal fraction (100000×g precipitate)
T1 sequence (P11511 1-503): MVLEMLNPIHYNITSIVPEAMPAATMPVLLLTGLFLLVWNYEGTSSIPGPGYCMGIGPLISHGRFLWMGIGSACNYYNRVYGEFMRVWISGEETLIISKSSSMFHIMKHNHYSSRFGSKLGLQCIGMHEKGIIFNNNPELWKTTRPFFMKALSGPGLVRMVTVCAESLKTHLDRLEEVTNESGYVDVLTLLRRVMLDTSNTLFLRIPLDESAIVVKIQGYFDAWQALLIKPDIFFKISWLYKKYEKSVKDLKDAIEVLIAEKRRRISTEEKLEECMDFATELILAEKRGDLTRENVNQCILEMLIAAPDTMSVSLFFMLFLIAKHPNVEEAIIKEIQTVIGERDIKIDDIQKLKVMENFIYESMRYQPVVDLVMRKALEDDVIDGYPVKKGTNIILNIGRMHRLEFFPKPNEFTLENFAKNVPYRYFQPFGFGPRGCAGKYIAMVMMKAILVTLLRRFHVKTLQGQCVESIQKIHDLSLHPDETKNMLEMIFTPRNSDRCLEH
In words: In vitro inhibition of human placental aromatase (3H2O release from 1,2[3H]-androstene-3,17-dione). The class given is biochemical. Conditions: for IC10: 40 min, read-out: AROMATASE IC-10; for IC90: read-out: AROMATASE IC-90.
Procedure: Human aromatase enzyme was used. The enzyme was prepared from human placenta, which is rich in the enzyme. Microsomal fraction (100000×g precipitate) was prepared by centrifugation. The enzyme preparation was used without further purification. Test compounds listed in Table 1 were added with 100000 dpm of 1,2[^3 H]-androstene-3,17-dione and NADPH generating system. The concentrations of the test compounds were 0,001; 0,01; 0,1 and 1,0 mM. The incubation was carried out at 37° C. for 40 min. Aromatization of 1,2[^3 H]-androstene-3,17-dione results in the production of ^3 H2 O. The tritiated water and the tritiated substrate are easily separated by a Sep-Pak® minicolumn, which absorbs the steroid but allows free water elution. Radioactivity was counted by a liquid scintillation counter. Aromatase inhibition was evaluated by comparing the ^3 H2 O-radioactivity of inhibitor treated samples to controls containing no inhibitor. IC-10, IC-50 and IC-90 values were calculated as concentrations which inhibited the enzyme activity 10%, 50% and 90%, respectively.

Data set [3] deals with desmolase. Briefly: Cholesterol side-chain cleavage (desmolase, P450 scc) inhibition. Conditions: read-out: DESMOLASE IC-50; Table 2; 30 min at 37° C.; human placenta or bovine adrenals as enzyme source, table title says human.

On to `c1ccc(C(Cc2c[nH]cn2)c2ccccc2)cc1` [4-(2,2-diphenylethyl)-1H-imidazole], for which the α2-blocking properties result in data set [1] is recorded as “selective α2 -blocking properties”. As to `Cc1cccc(C)c1CCC(O)(CCc1c[nH]cn1)CCc1c(C)cccc1C` [Compound 1, 4-[5-(2,6-dimethylphenyl)-3-hydroxy-3-(2,6-dimethylphenylethyl)pentyl]-1H-imidazole], in data set [2], the IC10 was 20 µM and the IC90 was above 1000 µM. In addition, the IC50 in data set [2] (read-out: AROMATASE IC-50) was found to be 1000 µM. In the same order, the values of `OC(CCc1c[nH]cn1)(c1ccc(Cl)cc1)c1ccc(Cl)cc1` [Compound 2, 4-[3,3-bis(4-chlorophenyl)-3-hydroxypropyl]-1H-imidazole] are 4 µM, 1000 µM and 60 µM. For the compound `OC(CCc1c[nH]cn1)(c1ccccc1)c1ccccc1` [Compound 3, 4-(3,3-diphenyl-3-hydroxypropyl)-1H-imidazole], in data set [2], the IC10 came to 4 µM and the IC90 worked out at 1000 µM. In addition, the IC50 in data set [2] (read-out: AROMATASE IC-50) turned out to be 70 µM. For the compound `C(Cc1c[nH]cn1)=C(c1ccccc1)c1ccccc1` [Compound 4], in data set [2], the IC50 came out at 6 µM, the IC10 was below 1 µM and the IC90 is 100 µM.

As to `Cc1ccccc1C(O)(CCc1c[nH]cn1)c1ccccc1C` [Compound 6, 4-[3,3-bis(2-methylphenyl)-3-hydroxpropyl]-1H-imidazole], in data set [2], the IC50 came to 300 µM, the IC10 is 15 µM and the IC90 was above 1000 µM. The matching figures for `Clc1ccc(C(=CCc2c[nH]cn2)c2ccc(Cl)cc2)cc1` [Compound 7]: 35 µM, 2 µM and 600 µM. In the case of `Cc1ccccc1C(=CCc1c[nH]cn1)c1ccccc1C` [Compound 8], in data set [2], the IC50 was determined as 80 µM, the IC10 was 1.5 µM and the IC90 was above 1000 µM.

In the case of `c1ccc(Cn2cncc2CCC(c2ccccc2)c2ccccc2)cc1` [Compound 10, 1-benzyl-5-(3,3-diphenylpropyl)-1H-imidazole], in data set [2], the IC10 was around 0.6 µM and the IC90 was found to be 100 µM. For the same compound, the IC50 in data set [2] (read-out: AROMATASE IC-50) is 4 µM. As for `Cc1cccc(C(CCc2c[nH]cn2)c2cccc(C)c2)c1` [Compound 11, 4-[3,3-bis(3-methylphenyl)propyl]-1H-imidazole], the IC50 in data set [3] worked out at 29 µM. As for `Cc1cccc(C(=CCc2c[nH]cn2)c2cccc(C)c2)c1` [Compound 12], in data set [2], the IC50 stood at 62 µM, the IC10 stood at 1 µM and the IC90 worked out at 1000 µM.

Consider `COc1cccc(C(CCc2c[nH]cn2)c2cccc(OC)c2)c1` [Compound 13, 4-[3,3-bis(3-methoxyphenyl)propyl]-1H-imidazole], for which the IC50 in data set [2] (read-out: AROMATASE IC-50) worked out at 3 µM. Still for that read-out and setting: then `Cc1cccc(C(CCc2c[nH]cn2)c2cccc(C)c2C)c1C` [Compound 14, 4-[3,3-bis(2,3-dimethylphenyl)propyl]-1H-imidazole], with 44 µM; and `COc1cccc(C(CCc2cncn2Cc2ccccc2)c2cccc(OC)c2)c1` [Compound 15, 1-benzyl-5-[3,3-bis(3-methoxyphenyl)propyl]-1H-imidazole], with 4 µM. In data set [2], `COc1cccc(C(=CCc2cncn2Cc2ccccc2)c2cccc(OC)c2)c1` [Compound 16] had an IC50 of 14 µM. Regarding `Cc1cc(C)cc(C(CCc2c[nH]cn2)c2cc(C)cc(C)c2)c1` [Compound 17, 4-[3,3-bis(3,5-dimethylphenyl)propyl]-1H-imidazole], the IC50 in data set [2] (read-out: AROMATASE IC-50) is 130 µM. As for `Cc1ccc(C(CCc2c[nH]cn2)c2ccc(C)cc2)cc1` [Compound 18, 4-[3,3-bis(4-methylphenyl)propyl]-1H-imidazole], the IC50 in data set [3] was found to be 48 µM. As to `Fc1cccc(C(CCc2c[nH]cn2)c2cccc(F)c2)c1` [Compound 19, 4-[3,3-bis(3-fluorophenyl)propyl]-1H-imidazole], in data set [3], the IC50 was found to be 20 µM. `C(Cc1cncn1Cc1ccccc1)=C(c1ccccc1)c1ccccc1` [Compound 20]: in data set [2], the IC50 came out at 50 µM.

Turning to `c1ccc(CCC(CCc2cncn2Cc2ccccc2)c2ccccc2)cc1` (centres unmarked) [Compound 21, 1-benzyl-5-(3,5-diphenylpentyl)-1H-imidazole], in data set [2] (read-out: AROMATASE IC-50), the IC50 was 17 µM.

`COc1ccc(C(CCc2c[nH]cn2)c2ccc(OC)cc2)cc1` [Compound 22, 4-[3,3-bis(4-methoxyphenyl)propyl]-1H-imidazole]: the IC50 in data set [3] is 26 µM. Take `Cc1ccc(C(CCc2c[nH]cn2)c2ccccc2)cc1` (centres unmarked) [Compound 24, 4-[3-(4-methylphenyl)-3-phenylpropyl]-1H-imidazole]: the IC50 in data set [3] worked out at 50 µM. Regarding `COc1ccccc1C(CCc1c[nH]cn1)c1ccccc1OC` [Compound 25, 4-[3,3-bis(2-methoxyphenyl)propyl]-1H-imidazole], the IC50 in data set [2] (read-out: AROMATASE IC-50) was 8.6 µM.

Turning to `Fc1ccc(C(CCc2c[nH]cn2)c2ccccc2)cc1` (centres unmarked) [Compound 26, 4-[3-(4-fluorophenyl)-3-phenylpropyl]-1H-imidazole], in data set [3], the IC50 is 440 µM. On the same count and under the same terms, then `Fc1ccc(C(CCc2c[nH]cn2)c2ccc(F)cc2)cc1` [Compound 27, 4-[3,3-bis(4-fluorophenyl)propyl]-1H-imidazole], with 30 µM. As for `C(=CC(c1ccccc1)c1ccccc1)c1cncn1Cc1ccccc1` [Compound 28, 1-benzyl-5-(3,3-diphenylpropen-1-yl)-1H-imidazole], the IC50 in data set [2] (read-out: AROMATASE IC-50) stood at 14 µM.

The values above are taken from patent publication US5098923A, “Aromatase inhibiting 4(5)-imidazoles” (Farmos-Yhtyma Oy, priority 1987, dated 1992).
